Measurements from patent publication US6048892A, “Ester compound pesticide containing thereof” (Sumitomo Chemical Company, Limited, priority 1999, dated 2000).

Assays:
[1] = tested on: houseflies (Musca domestica); assay: Biological Test 4: mortality of female houseflies low sensitive to pyrethroids, treated filter paper; format: in vivo; conditions: 24 h
Method: Filter paper of 5.5 cm in diameter was laid in the bottom of a polyethylene cup (diameter: 5.5 cm). After 0.7 ml of a 500 ppm aqueous emulsion obtained by diluting each emulsifiable concentrate prepared according to the formulation example 1 was dropped on the filter paper and approximately 30 mg of sucrose as bait was uniformly scattered. Ten female houseflies (Musca domestica), which were low sensitive to pyrethroids, were left in the cup with a cover. After one day, the mortality was examined.

[2] = tested on: tobacco cutworm (Spodoptera litura); assay: Biological Test 1: mortality of larvae on impregnated artificial bait; format: in vivo; conditions: 144 h, read-out: mortality of the larvae
Method: Emulsifiable concentrates were prepared for each of the present compounds according to the formulation example 1. Thirteen grams of artificial bait for tobacco cutworm (Spodoptera litura) were placed in a polyethylene cup (diameter: 11 cm) and impregnated with 2 ml of the 500 ppm emulsion prepared by diluting the emulsifiable concentrates with water. Ten 4-instar larvae of Spodoptera litura were put in the polyethylene cup. After 6 days, the mortality of the larvae was examined.

[3] = tested on: houseflies (Musca domestica); assay: Biological Test 16: topical application of compound (1) with piperonyl butoxide, mortality; format: in vivo; conditions: after 24 hours
Method: The combination rate of piperonyl butoxide to the present compound was 0, 2, 4, 8 and 16 times. The mixture was dissolved in acetone. The acetone solution (0.5 μL) was applied to 10 female houseflies (Musca domestica) at the back thoracic region. After 24 hours, the number of dead insects was observed (2 repetition) and mortality was calculated.

[4] = tested on: webbing clothes moth (Tineola bisselliella); assay: Biological Test 13: volatile agent in cup, mortality and fabric damage; format: in vivo; conditions: volatile agent (100 μg on filter paper), 950 cm^3 cup, 25° C., 1 week
Method: A wool muslin fabric (2 cm×2 cm in size) was placed on the bottom of a polyethylene cup (bottom diameter: 10 cm, opening part diameter: 12.5 cm, height: 9.5 cm, volume: 950 cm^3). Ten middle instar larvae of webbing clothes moth (Tineola bisselliella) were put in the cup and each of the volatile agents prepared according to the formulation example 14 was hung from the cap in the interior of the cup. After standing at 25° C. for 1 week, the cup was opened, and the mortality and the degree of damage of the wool muslin fabric by the moths were examined (two replicate).

[5] = tested on: webbing clothes moth (Tineola bisselliella); assay: Biological Test 14: treated filter paper in cardboard box, percent moribund, fabric damage and persistence; format: in vivo; conditions: 36 mg on filter paper
Method: A filter paper (3.2 cm×3.2 cm in size) treated with 36 mg of each of the present compounds and two wool muslin fabrics (25 cm×25 cm in size) were hung down at the upper part of a corrugated cardboard box (29 cm×29 cm×29 cm in size). After standing at 25° C. and a humidity of 60% for 1 week, two tea-strainer balls holding 7 to 10 middle instar larvae of webbing clothes moth (Tineola bisselliella) and one piece of wool muslin cloth (2 cm×2 cm in size) were hung down at the upper part of the box. The box was closed with a lid. After one week, the box was opened, and the percent moribund and the degree of damage of the wool muslin cloth by the moths were examined. The same tests was repeated 2 weeks, 3 weeks and 5 weeks after the treatment to examine the persistance of the present compound. The degree of damage was represented by "-" in no damage, "+" in slight damage, "++" in heavy damage and "+++" in severe damage.

[6] = Toxicity Test: acute oral LD50; conditions: rat, in vivo, corn oil, fasted male 7-week old rats, after 7 days
Method: After subjecting the rats to a twenty-hour fasting, 0.1 ml of the diluted solution per 10 g weight was forcibly applied into the stomach of four male 7-week old rats. The rats were given food and water four hours after the application and thereafter regularly fed and watered, and kept in a cage. After 7 days, the mortality was examined for the rats and LD50 was calculated.

[7] = tested on: common mosquitoes (Culex pipiens pallens); assay: Biological Test 7: knock-down of mosquitoes by sprayed oil solution; format: in vivo; conditions: 0.7 ml of 0.1% oil solution sprayed in 0.34 m^3 chamber; after 15 minutes
Method: Ten female common mosquitoes (Culex pipiens pallens) were left in a glass chamber (70 cm×70 cm×70 cm: 0.34 m^3). 0.7 ml of 0.1% oil solution prepared for each of the present compounds according to the formulation example 7 was sprayed with a spray gun at 0.8 atmospheric pressure. After 15 minutes, the rate of knocked-down mosquitoes was examined.

[8] = tested on: brown planthopper (Nilaparvata lugens); assay: Biological Test 2: mortality of larvae on dipped rice plant stalk; format: in vivo; conditions: 144 h, read-out: mortality of the larvae
Method: A stalk of a rice plant was dipped for one minute in a 500 ppm aqueous emulsion obtained by diluting each emulsifiable concentrate of the present compounds prepared according to the formulation example 1. The rice plant stalk was air-dried and placed in a polyethylene cup (diameter: 5.5 cm) where filter paper (diameter: 5.5 cm) impregnated with 1 ml of water was put. Approximately 30 larvae of brown planthopper (Nilaparvata lugens) were put in the polyethylene cup. After 6 days, the mortality of the larvae was examined.

[9] = tested on: common mosquitoes (Culex pipiens pallens); assay: Biological Test 6: mortality of last-instar mosquito larvae in water; format: in vivo; conditions: 24 h, read-out: mortality of the common mosquitoes
Method: 0.7 ml of aqueous emulsion, obtained by diluting emulsifiable concentrate prepared for each of the present compounds according to the formulation example 1, was added to 100 ml of ion-exchanged water (concentration of active ingredient: 3.5 ppm). Twenty last-instar larvae of common mosquitoes (Culex pipiens pallens) were left in the water. After one day, the mortality of the common mosquitoes was examined.

[10] = tested on: southern corn rootworm (Diabrotica undecimpunctata howardi); assay: Biological Test 3: mortality of hatched larvae and eggs; format: in vivo; conditions: 192 h, read-out: mortality of the hatched larvae and eggs
Source text: Filter paper of 5.5 cm in diameter was laid in the bottom of a polyethylene cup (diameter: 5.5 cm). […] After 8 days, the mortality of the hatched larvae and eggs was examined.

[11] = tested on: German cockroaches (Blattela germanica); assay: Biological Test 15: repellency, treated sheet shelter; format: in vivo; conditions: 1.0 ml of 0.1% by weight acetone solution on filter paper; 24 hours
Method: The obtained sheet was folded as to be a triangular tube where one side of the triangle-shaped base was 3 cm.
In a plastic cup (650 ml volume), said triangular tube was placed as a shelter (cockroach hiding residence). Ten adult German cockroaches (Blattela germanica) were placed in said plastic cup together with food and water and then observed the number of cockroaches in the shelter 24 hours later (two replicate). Repellency (%) was calculated by the following formula: [formula]

Cc1ccc(COC(=O)[C@@H]2[C@H](/C=C(\Cl)C(F)(F)F)C2(C)C)o1 (relative stereo) [Compound (1), 5-methyl-2-furfuryl (1RS,cis)-3-(Z-2-chloro-3,3,3-trifluoroprop-1-enyl)-2,2-dimethylcyclopropanecarboxylate]
mortality at 500 ppm [1]: 100% | mortality at 500 µg/mL [2]: 100% | Mortality (%) ([3]; compound (1) 0.5 μg/female, piperonyl butoxide 0): 30% | Mortality (%) ([3]; compound (1) 0.5 + piperonyl butoxide 2.0 μg/female): 100% | Mortality (%) ([3]; compound (1) 0.5 + piperonyl butoxide 4.0 μg/female): 100% | Mortality (%) ([3]; compound (1) 0.5 + piperonyl butoxide 8.0 μg/female): 100% | degree of damage of the wool muslin fabric [4]: no damage | mortality ([4]; 10080 min): 100% | degree of damage ([5]; After 1 week): - | degree of damage ([5]; After 2 weeks): - | degree of damage ([5]; After 3 weeks): - | degree of damage ([5]; After 5 weeks): - | LD50 at 168 h [6]: 300 mg/kg | rate of knocked-down mosquitoes [7]: ≥ 90% | mortality at 500 ppm [8]: ≥ 90% | mortality at 3.5 ppm [9]: ≥ 90% | mortality at 50 ppm [10]: 100% | Repellency (%) [11]: 100%
